How the values were obtained:
corn = assay: Test B pre-/postemergence herbicide test; assay type: in vivo, Zea mays
Outline: (§1)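 Evaluation is visual, comparing treated with control plants on a scale where 0 means no effect and 100 means full control. Treatments were preemergence, or postemergence on seedlings 2–18 cm tall, and held 13–15 days in the greenhouse.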

pigweed = assay: Test B pre-/postemergence herbicide test; assay type: in vivo, Amaranthus retroflexus
Outline: as §1

Surinam grass = assay: Test B pre-/postemergence herbicide test; assay type: in vivo, Urochloa decumbens
Outline: as §1

large crabgrass = assay: Test B pre-/postemergence herbicide test; assay type: in vivo, Digitaria sanguinalis
Outline: as §1

giant foxtail = assay: Test B pre-/postemergence herbicide test; assay type: in vivo, Setaria faberi
Outline: as §1

velvetleaf = assay: Test B pre-/postemergence herbicide test; assay type: in vivo, Abutilon theophrasti
Outline: as §1

wheat = assay: Test B postemergence herbicide test; assay type: in vivo, Triticum aestivum; design: key to Wheat plant response rating: 0 = no effect, 100 = complete control
Outline: (§2)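 Read-out: visual comparison with controls, scored 0 to 100, where 100 means complete control and 0 no effect. Formulated chemicals were applied postemergence to plants 2–18 cm tall (1- to 4-leaf), or to flooded-paddy plants at the 2-leaf stage, then held 13 to 15 days under glass.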

[1] = test system: small flower umbrella sedge; assay: Test B flooded paddy test; assay type: in vivo, Cyperus difformis; conditions: 1000 g ai/ha, scale 0 to 100 (0 no effect, 100 complete control)
Outline: (§3)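 Each value is a visual 0–100 response rating taken against controls 13 to 15 days after treatment in the greenhouse. Plants received formulated chemical postemergence at the 1- to 4-leaf stage or, in flooded paddy, at the 2-leaf stage.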

wild oat = assay: Test B postemergence herbicide test; assay type: in vivo, Avena fatua
Outline: as §2

cocklebur = assay: Test B pre-/postemergence herbicide test; assay type: in vivo, Xanthium strumarium
Outline: as §1

lambsquarters = assay: Test B pre-/postemergence herbicide test; assay type: in vivo, Chenopodium album
Outline: as §1

rice = assay: Test B flooded paddy test; assay type: in vivo, Oryza sativa; conditions: 1000 g ai/ha, scale 0 to 100 (0 no effect, 100 complete control)
Outline: as §3

blackgrass = assay: Test B postemergence herbicide test; assay type: in vivo, Alopecurus myosuroides
Outline: as §3

ducksalad = assay: Test B flooded paddy test; assay type: in vivo, Heteranthera limosa; conditions: 1000 g ai/ha, scale 0 to 100 (0 no effect, 100 complete control)
Outline: as §3

barnyardgrass = assay: Test B pre-/postemergence herbicide test; assay type: in vivo, Echinochloa crus-galli; conditions: for Barnyardgrass plant response rating: Postemergence, scale 0 (no effect) to 100 (complete control)
Outline: as §1

[2] = 125 g ai/ha, 0 is no effect, 100 is complete control, preemergence
[3] = Postemergence, 500 g ai/ha, scale 0 (no effect) to 100 (complete control)
[4] = postemergence, 125 g ai/ha, scale 0 to 100

CCc1nn(C(C)(C)C)nc1C(=O)Nc1cccc(C(=O)NC2CC2)c1 [Compound 417]
Plant response rating (0 to 100 scale), Corn (corn; [2]): 40 | Corn plant response rating (corn; [3]): 30 | Corn plant response rating (corn; [4]): 10 | Plant response rating (0 to 100 scale), Pigweed (pigweed; [2]): 90 | Pigweed plant response rating (pigweed; [3]): 80 | Pigweed plant response rating (pigweed; [4]): 50 | Plant response rating (0 to 100 scale), Surinam Grass (Surinam grass; [2]): 80 | Surinam Grass plant response rating (Surinam grass; [3]): 30 | Surinam Grass plant response rating (Surinam grass; [4]): 10 | Plant response rating (0 to 100 scale), Crabgrass, Large (large crabgrass; [2]): 100 | Crabgrass, Large plant response rating (large crabgrass; [3]): 40 | Crabgrass, Large plant response rating (large crabgrass; [4]): 20 | Plant response rating (0 to 100 scale), Foxtail, Giant (giant foxtail; [2]): 70 | Foxtail, Giant plant response rating (giant foxtail; [3]): 40 | Foxtail, Giant plant response rating (giant foxtail; [4]): 20 | Plant response rating (0 to 100 scale), Velvetleaf (velvetleaf; [2]): 50 | Velvetleaf plant response rating (velvetleaf; [3]): 40 | Velvetleaf plant response rating (velvetleaf; [4]): 20 | Wheat plant response rating (wheat; 500 g ai/ha, scale 0 to 100, 0 no effect, 100 complete control, preemergence): 90 | Wheat plant response rating (wheat; [3]): 20 | Wheat plant response rating (wheat; [4]): 10 | Sedge, Umbrella plant response rating [1]: 70 | Oat, Wild plant response rating (wild oat; [3]): 40 | Oat, Wild plant response rating (wild oat; [4]): 10 | Plant response rating (0 to 100 scale), Cocklebur (cocklebur; [2]): 0 | Cocklebur plant response rating (cocklebur; [3]): 40 | Cocklebur plant response rating (cocklebur; [4]): 20 | Plant response rating (0 to 100 scale), Lambsquarters (lambsquarters; [2]): 90 | Lambsquarters plant response rating (lambsquarters; [3]): 80 | Lambsquarters plant response rating (lambsquarters; [4]): 70 | Rice plant response rating (rice): 70 | Blackgrass plant response rating (blackgrass; [3]): 40 | Blackgrass plant response rating (blackgrass; [4]): 10 | Ducksalad plant response rating (ducksalad): 80 | Plant response rating (0 to 100 scale), Barnyardgrass (barnyardgrass; [2]): 80 | Barnyardgrass plant response rating (barnyardgrass; 125 g ai/ha): 10 | Barnyardgrass plant response rating (barnyardgrass; 500 g ai/ha): 20
